Experimental data: patent US8101619B2, “Phenylpiperazine derivatives with a combination of partial dopamine-D2 receptor agonism and serotonin reuptake inhibition” (Solvay Pharmaceuticals B.V., priority 2004, dated 2012)
Structures can show the parent of a compound that is named as a salt.

Tests used:
dopamine-D2 receptors = molecular target: T1, dopamine-D2 receptors (Rattus norvegicus, UniProt P61169); assay: In vitro affinity for dopamine-D2 receptors ([3H]-spiroperidol receptor binding assay); conditions: read-out: Dopamine-D2 binding pKi (converted)
T1 construct: labels dopamine receptors in rat pituitary and brain; from tissue
Description: In Vitro Affinity for Dopamine-D2 Receptors
Affinity of the compounds for dopamine-D2 receptors was determined using the receptor binding assay described by 1. Creese, R. Schneider and S. H. Snyder: “[^3H]-Spiroperidol labels dopamine receptors in rat pituitary and brain”, Eur. J. Pharmacol., 46, 377-381, 1977.

serotonin reuptake sites = molecular target: T2, serotonin reuptake sites (Rattus norvegicus, UniProt P31652); assay: In vitro affinity for serotonin reuptake sites ([3H]-paroxetine binding assay); conditions: receptor binding; read-out: 5-HT reuptake binding pKi (converted)
T2 construct: from tissue
Description: In Vitro Affinity for Serotonin Reuptake Sites
Affinity of the compounds for serotonin reuptake sites was determined using the receptor binding assay described by E. Habert et al.: “Characterisation of [^3H]-paroxetine binding to rat cortical membranes”, Eur. J. Pharmacol., 118, 107-114, 1985.

[1] = molecular target: T3, Human dopamine D2,L receptors (Homo sapiens, UniProt P14416); assay: Inhibition of forskolin-induced [3H]-cAMP accumulation in CHO-K1 cells; type: cell-based; conditions: cloned human dopamine D2,L receptors in CHO-K1 cells; full agonist ε=1, full antagonist ε=0
T3 construct: host or cells: CHO-K1
Description: Inhibition of Forskolin-Induced [^3H]-cAMP Accumulation
The in vitro functional activity at dopamine-D2 receptors, including the intrinsic activity (ε) of the compounds of the invention was measured by their ability to inhibit forskolin-induced [^3H]-cAMP accumulation.
Human dopamine D2,L receptors were cloned in fibroblast cell line CHO-K1 cells and obtained from Dr. Grandy, Vollum Institute, Portland, Oreg., USA. CHO cells were grown in a Dulbecco's modified Eagle's medium (DMEM) culture medium, supplemented with 10% heat-inactivated fetal calf serum, 2 mM glutamine, 1 mM pyruvate, 5000 units/ml penicillin, 5000 μg/ml streptomycin and 200 μg/ml G-418 at 37° C. in 93% air/7% CO2. For incubation with test compounds, confluent cultures grown in 24 wells plates were used. Each condition or substance was routinely tested in quadruplicate. Cells were loaded with 1 μCi [^3H]-adenine in 0.5 ml medium/well. After 2 hours, cultures were washed with 0.5 ml PBS containing 1 mM of the phosphodiesterase inhibitor isobutylmethylxanthine (IBMX) and incubated for 20 min with 0.5 ml PBS containing 1 mM IBMX and forskolin with or without test compound. After aspiration the reaction was stopped with 1 ml trichloroacetic acid 5% (w/v). […] 0.8 ml Extract was passed over Dowex (50WX-4 200-400 mesh) and aluminumoxide columns, eluted with water and 0.1M imidazole (pH=7.5). Eluates were mixed with 7 ml Insta-gel and radioactivity was counted with a liquid scintillation counter. The conversion of [^3H]-ATP into [^3H]-cAMP was expressed as the ratio in percentage radioactivity in the cAMP fraction as compared to combined radioactivity in both cAMP and ATP fractions, and basal activity was subtracted to correct for spontaneous activity.
Test compounds were obtained as 10 mM stock solutions in 100% DMSO, and diluted in PBS/IBMX to final concentrations. Typically, compounds were used in concentrations that ranged from 10^−10M to 10^−5M. From quadruplicate data counts, the mean was taken as an estimate for drug-induced, receptor-mediated effects at specified second messenger accumulation, expressed as percentage of control values (forskolin-stimulated cAMP accumulation, subtracted by basal activity). By using the non-linear curve-fitting program INPLOT or the Excel-add-in XL-Fit, mean values were plotted against drug concentration (in molar) and a sigmoid curve (four-parameter logistic curve) was constructed. The maximal forskolin-induced stimulated conversion is taken as maximum value and the maximal inhibition (usually at drug concentrations 10^−6 M or 10^−5 M) as minimum and these values were fixed during the fitting process. Thus, concentrations of the compound, causing 50% of the maximally obtained inhibition of forskolin-induced cAMP accumulation (EC50), are averaged over several experiments and presented as mean pEC50±SEM. Antagonist potency is assessed by co-incubating cells with a fixed agonist concentration and specified antagonist concentrations. Curve fitting procedures are identical to those used for estimating EC50 values. Thus IC50 values, i.e. the concentration that is able to achieve 50% of maximal antagonism that can be achieved by this compound. IC50 values are corrected using a Cheng-Prussoff equation, correcting it for agonist concentration and EC50 values that is obtained in the same experiment. Thus, Kb=IC50/(1+[agonist]/EC50, agonist). The corresponding pA2 value is −log (Kb). Concentration-response curve fitting allows estimation of pEC50 values and of maximal achievable effect (intrinsic activity or efficacy (ε). A full receptor agonist has ε=1, a full receptor antagonist has ε=0, and a partial receptor agonist has an intermediate intrinsic activity.

T2 sequence (P31652 whole entry): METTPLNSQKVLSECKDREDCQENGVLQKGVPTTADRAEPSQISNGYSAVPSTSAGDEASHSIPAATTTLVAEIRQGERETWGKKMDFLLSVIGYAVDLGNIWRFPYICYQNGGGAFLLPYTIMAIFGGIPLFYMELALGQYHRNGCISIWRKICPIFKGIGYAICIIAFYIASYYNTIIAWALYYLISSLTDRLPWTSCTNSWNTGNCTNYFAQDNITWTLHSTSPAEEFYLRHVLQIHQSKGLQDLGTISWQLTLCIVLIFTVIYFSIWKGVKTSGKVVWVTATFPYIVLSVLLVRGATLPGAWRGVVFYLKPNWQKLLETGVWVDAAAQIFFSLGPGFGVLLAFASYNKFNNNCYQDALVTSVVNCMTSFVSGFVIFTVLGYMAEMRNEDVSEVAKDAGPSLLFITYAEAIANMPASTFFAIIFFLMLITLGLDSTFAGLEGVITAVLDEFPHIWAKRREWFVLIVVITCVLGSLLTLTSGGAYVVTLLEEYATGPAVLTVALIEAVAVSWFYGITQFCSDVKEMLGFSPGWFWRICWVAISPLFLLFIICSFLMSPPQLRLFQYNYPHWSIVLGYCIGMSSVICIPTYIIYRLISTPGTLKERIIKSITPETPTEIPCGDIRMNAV
T1 sequence (P61169 whole entry): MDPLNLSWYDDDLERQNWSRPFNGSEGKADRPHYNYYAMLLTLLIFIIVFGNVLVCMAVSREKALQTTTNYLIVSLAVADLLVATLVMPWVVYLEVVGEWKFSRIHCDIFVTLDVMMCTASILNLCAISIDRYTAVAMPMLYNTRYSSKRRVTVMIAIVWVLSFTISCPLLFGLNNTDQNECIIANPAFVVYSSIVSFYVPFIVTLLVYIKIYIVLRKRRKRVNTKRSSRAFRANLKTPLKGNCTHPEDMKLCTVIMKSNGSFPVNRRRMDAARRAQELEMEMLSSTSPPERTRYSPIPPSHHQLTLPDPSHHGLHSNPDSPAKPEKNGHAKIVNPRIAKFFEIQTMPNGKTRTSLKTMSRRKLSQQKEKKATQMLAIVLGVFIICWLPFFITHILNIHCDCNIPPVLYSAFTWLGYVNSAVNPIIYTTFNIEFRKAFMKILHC
T3 sequence (P14416 whole entry): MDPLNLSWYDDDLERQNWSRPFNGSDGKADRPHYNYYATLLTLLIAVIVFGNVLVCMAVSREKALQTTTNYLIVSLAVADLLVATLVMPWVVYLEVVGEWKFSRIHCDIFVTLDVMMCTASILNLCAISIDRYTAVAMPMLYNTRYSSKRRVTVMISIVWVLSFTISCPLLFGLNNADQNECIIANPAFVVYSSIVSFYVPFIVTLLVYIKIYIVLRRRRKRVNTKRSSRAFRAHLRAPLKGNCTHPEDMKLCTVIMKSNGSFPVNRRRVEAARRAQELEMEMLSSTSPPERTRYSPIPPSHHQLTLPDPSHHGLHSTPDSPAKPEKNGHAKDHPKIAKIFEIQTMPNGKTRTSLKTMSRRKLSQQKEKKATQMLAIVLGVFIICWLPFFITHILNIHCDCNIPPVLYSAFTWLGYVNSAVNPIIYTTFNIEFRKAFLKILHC

O=c1[nH]c2cccc(N3CCN(CCCCOc4cccc(F)c4)CC3)c2o1 [compound 9]
Ki (dopamine-D2 receptors): 6.31 nM | Ki (serotonin reuptake sites): 100 nM | Dopamine-D2 cAMP accum ε (intrinsic activity) [1]: 0.64 | melting point: 153 to 155 °C

COc1ccc(C#N)cc1OCCCN1CCN(c2cccc3[nH]c(=O)oc23)CC1 [compound 24]
Ki (dopamine-D2 receptors): 1.26 nM | Ki (serotonin reuptake sites): 12.6 nM | Dopamine-D2 cAMP accum ε (intrinsic activity) [1]: 0.86 | melting point: 189 to 190 °C

Cn1c(=O)oc2c(N3CCN(CCCCOc4cccc(F)c4)CC3)cccc21 [compound 31]
Ki (dopamine-D2 receptors): 63.1 nM | Ki (serotonin reuptake sites): 5.01 nM | Dopamine-D2 cAMP accum ε (intrinsic activity) [1]: 0.56 | melting point: 95 to 97 °C

N#Cc1cccc(SCCCCN2CCN(c3cccc4[nH]c(=O)oc34)CC2)c1 (as salt: HCl) [compound 20]
melting point: 168 to 170 °C

N#Cc1cccc(SCCCCN2CCN(c3cccc4[nH]c(=O)oc34)CC2)c1 [compound 20]
Ki (dopamine-D2 receptors): 3.98 nM | Ki (serotonin reuptake sites): 3.16 nM | Dopamine-D2 cAMP accum ε (intrinsic activity) [1]: 0.98

CN(CCN1CCN(c2cccc3[nH]c(=O)oc23)CC1)c1cccc(C#N)c1 (as salt: HCl) [compound 14]
melting point: 230 to 231 °C

CN(CCN1CCN(c2cccc3[nH]c(=O)oc23)CC1)c1cccc(C#N)c1 [compound 14]
Ki (dopamine-D2 receptors): 15.8 nM | Ki (serotonin reuptake sites): 1 nM | Dopamine-D2 cAMP accum ε (intrinsic activity) [1]: 0.57

N#Cc1cccc(OCCCCN2CCN(c3cccc4[nH]c(=O)oc34)CC2)c1 [compound 6]
Ki (dopamine-D2 receptors): 1 nM | Ki (serotonin reuptake sites): 3.98 nM | Dopamine-D2 cAMP accum ε (intrinsic activity) [1]: 0.76 | melting point: 165 to 168 °C

CN(CCCN1CCN(c2cccc3[nH]c(=O)oc23)CC1)c1cccc(C#N)c1 [compound 15]
Ki (dopamine-D2 receptors): 6.31 nM | Ki (serotonin reuptake sites): 0.794 nM | Dopamine-D2 cAMP accum ε (intrinsic activity) [1]: 0.61

O=c1[nH]c2cccc(N3CCN(CCCOc4cccc(C(F)(F)F)c4)CC3)c2o1 [compound 17]
Ki (dopamine-D2 receptors): 25.1 nM | Ki (serotonin reuptake sites): 50.1 nM | Dopamine-D2 cAMP accum ε (intrinsic activity) [1]: 0.51 | melting point: 140 to 142 °C

N#Cc1cccc(OCCCN2CCN(c3cc(Cl)cc4[nH]c(=O)oc34)CC2)c1 (as salt: HCl) [compound 26]
melting point: 251 to 254 °C

CN(CCCCN1CCN(c2cccc3c2oc(=O)n3C)CC1)c1cccc(C#N)c1 [compound 35]
Ki (dopamine-D2 receptors): 100 nM | Ki (serotonin reuptake sites): 0.631 nM | Dopamine-D2 cAMP accum ε (intrinsic activity) [1]: 0.55 | melting point: 87 to 89 °C

CN(CCCN1CCN(c2cccc3[nH]c(=O)oc23)CC1)c1cccc(C#N)c1 (as salt: HCl) [compound 15]
melting point: 195 to 196 °C

N#Cc1cccc(OCCCN2CCN(c3cc(Cl)cc4[nH]c(=O)oc34)CC2)c1 [compound 26]
Ki (dopamine-D2 receptors): 10 nM | Ki (serotonin reuptake sites): 10 nM | Dopamine-D2 cAMP accum ε (intrinsic activity) [1]: 0.79
